Values of other authors, collected in Sander's compilation of Henry's law constants (doi:10.1021/es00169a013).

Experiment: Henry solubility constant Hcp at 298.15 K (mol/(m3 Pa))
Conditions: reference: Dunnivant et al. (1988); cited value

| Structure (SMILES) | Henry solubility constant Hcp |
| --- | --- |
| Clc1cc(Cl)c(-c2cc(Cl)c(Cl)cc2Cl)cc1Cl [2,2',4,4',5,5'-hexachlorobiphenyl] | 0.08 |
| Clc1cccc(Cl)c1-c1c(Cl)cccc1Cl [2,2',6,6'-tetrachlorobiphenyl] | 0.067 |
| Clc1cc(Cl)c(-c2c(Cl)cc(Cl)cc2Cl)c(Cl)c1 [2,2',4,4',6,6'-hexachlorobiphenyl] | 0.086 |
| Clc1ccc(-c2ccc(Cl)cc2)cc1 [4,4'-dichlorobiphenyl] | 0.068 |
